Measured values taken from the supplement of paper PMC10307832.

Experiments:
Test in all cases: relative viability (nuclei count vs DMSO), 5 days (fraction); higher = more cells survive
[1] = test system: A549
Procedure, shortened: (§1)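 Relative viability equals treated-well nuclei counts divided by vehicle-well nuclei counts. Counts came from 4× images of lung cancer cell lines grown in 1536-well plates for 5 days after pin-tool dosing on the day after seeding. Dosing used one drug alone or a fixed anchor-drug dose plus five library-drug doses (not always all listed) in √10 steps, and values are medians of duplicate plates.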

[2] = test system: ABC-1
Procedure, shortened: as §1

[3] = test system: COR-L23
Procedure, shortened: as §1

[4] = test system: ChaGo-K-1
Procedure, shortened: as §1

[5] = test system: NCI-H1437
Procedure, shortened: as §1

[6] = test system: NCI-H1648
Procedure, shortened: as §1

[7] = test system: NCI-H1651
Procedure, shortened: as §1

[8] = test system: SK-MES-1
Procedure, shortened: as §1

[9] = test system: SW 1573
Procedure, shortened: as §1

## O=c1cc(N2CCOCC2)oc2c(-c3cccc4c3sc3ccccc34)cccc12 + Nc1ncn([C@H]2C[C@H](O)[C@@H](CO)O2)c(=O)n1 [Decitabine] (partner 2 µM)
[1]; first compound 0.01 µM
  relative viability: 0.26
[1]; first compound 0.03162 µM
  relative viability: 0.242
[1]; first compound 0.1 µM
  relative viability: 0.189
[1]; first compound 0.3162 µM
  relative viability: 0.246
[1]; first compound 1 µM
  relative viability: 0.288
[2]; first compound 0.01 µM
  relative viability: 1.01
[2]; first compound 0.03162 µM
  relative viability: 1.15
[2]; first compound 0.1 µM
  relative viability: 1.31
[2]; first compound 0.3162 µM
  relative viability: 0.959
[2]; first compound 1 µM
  relative viability: 1.09
[3]; first compound 0.01 µM
  relative viability: 0.515
[3]; first compound 0.03162 µM
  relative viability: 0.434
[3]; first compound 0.1 µM
  relative viability: 0.475
[3]; first compound 0.3162 µM
  relative viability: 0.467
[3]; first compound 1 µM
  relative viability: 0.504
[4]; first compound 0.01 µM
  relative viability: 0.524
[4]; first compound 0.03162 µM
  relative viability: 0.539
[4]; first compound 0.1 µM
  relative viability: 0.532
[4]; first compound 0.3162 µM
  relative viability: 0.57
[4]; first compound 1 µM
  relative viability: 0.546
[5]; first compound 0.01 µM
  relative viability: 0.587
[5]; first compound 0.03162 µM
  relative viability: 0.562
[5]; first compound 0.1 µM
  relative viability: 0.638
[5]; first compound 0.3162 µM
  relative viability: 0.549
[5]; first compound 1 µM
  relative viability: 0.625
[6]; first compound 0.03162 µM
  relative viability: 0.594
[6]; first compound 0.1 µM
  relative viability: 0.496
[6]; first compound 0.3162 µM
  relative viability: 0.466
[6]; first compound 1 µM
  relative viability: 0.458
[7]; first compound 0.01 µM
  relative viability: 0.563
[7]; first compound 0.03162 µM
  relative viability: 0.615
[7]; first compound 0.1 µM
  relative viability: 0.593
[7]; first compound 0.3162 µM
  relative viability: 0.642
[7]; first compound 1 µM
  relative viability: 0.61
[8]; first compound 0.01 µM
  relative viability: 0.419
[8]; first compound 0.03162 µM
  relative viability: 0.43
[8]; first compound 0.1 µM
  relative viability: 0.366
[8]; first compound 0.3162 µM
  relative viability: 0.351
[8]; first compound 1 µM
  relative viability: 0.365
[9]; first compound 0.01 µM
  relative viability: 0.625
[9]; first compound 0.03162 µM
  relative viability: 0.577
[9]; first compound 0.1 µM
  relative viability: 0.529
[9]; first compound 0.3162 µM
  relative viability: 0.409
[9]; first compound 1 µM
  relative viability: 0.665

## O=c1cc(-c2cccc3c2Sc2ccccc2S3)oc(N2CCOCC2)c1 + CC(=O)c1c(C)c2cnc(Nc3ccc(N4CCNCC4)cn3)nc2n(C2CCCC2)c1=O [Palbociclib] (partner 0.5 µM)
[2]; first compound 0.08 µM
  relative viability: 1.04
[2]; first compound 0.253 µM
  relative viability: 0.836
[2]; first compound 0.8 µM
  relative viability: 0.474
[2]; first compound 2.53 µM
  relative viability: 0.767
[2]; first compound 8 µM
  relative viability: 0.674
[3]; first compound 0.08 µM
  relative viability: 0.291
[3]; first compound 0.253 µM
  relative viability: 0.307
[3]; first compound 0.8 µM
  relative viability: 0.393
[3]; first compound 2.53 µM
  relative viability: 0.334
[3]; first compound 8 µM
  relative viability: 0.34
[4]; first compound 0.08 µM
  relative viability: 0.942
[4]; first compound 0.253 µM
  relative viability: 1.12
[4]; first compound 0.8 µM
  relative viability: 0.842
[4]; first compound 2.53 µM
  relative viability: 0.899
[4]; first compound 8 µM
  relative viability: 1.09
[5]; first compound 0.08 µM
  relative viability: 0.302
[5]; first compound 0.253 µM
  relative viability: 0.344
[5]; first compound 0.8 µM
  relative viability: 0.276
[5]; first compound 2.53 µM
  relative viability: 0.25
[5]; first compound 8 µM
  relative viability: 0.285
[6]; first compound 0.253 µM
  relative viability: 0.324
[6]; first compound 0.8 µM
  relative viability: 0.281
[6]; first compound 8 µM
  relative viability: 0.302
[7]; first compound 0.08 µM
  relative viability: 0.523
[7]; first compound 0.253 µM
  relative viability: 0.537
[7]; first compound 0.8 µM
  relative viability: 0.524
[7]; first compound 2.53 µM
  relative viability: 0.509
[7]; first compound 8 µM
  relative viability: 0.537
[8]; first compound 0.08 µM
  relative viability: 0.311
[8]; first compound 0.253 µM
  relative viability: 0.321
[8]; first compound 0.8 µM
  relative viability: 0.313
[8]; first compound 2.53 µM
  relative viability: 0.294
[8]; first compound 8 µM
  relative viability: 0.286
[9]; first compound 0.08 µM
  relative viability: 0.426
[9]; first compound 0.253 µM
  relative viability: 0.414
[9]; first compound 0.8 µM
  relative viability: 0.448
[9]; first compound 2.53 µM
  relative viability: 0.377
[9]; first compound 8 µM
  relative viability: 0.362

## O=c1cc(-c2cccc3c2Sc2ccccc2S3)oc(N2CCOCC2)c1 + Nc1nc2[nH]cc(CCc3ccc(C(=O)N[C@@H](CCC(=O)O)C(=O)O)cc3)c2c(=O)[nH]1 [Pemetrexed] (partner 0.2 µM)
[3]; first compound 0.08 µM
  relative viability: 0.194
[3]; first compound 0.253 µM
  relative viability: 0.215
[3]; first compound 0.8 µM
  relative viability: 0.215
[3]; first compound 2.53 µM
  relative viability: 0.195
[3]; first compound 8 µM
  relative viability: 0.197
[4]; first compound 0.08 µM
  relative viability: 0.251
[4]; first compound 0.253 µM
  relative viability: 0.264
[4]; first compound 0.8 µM
  relative viability: 0.248
[4]; first compound 2.53 µM
  relative viability: 0.287
[4]; first compound 8 µM
  relative viability: 0.273
[5]; first compound 0.08 µM
  relative viability: 0.339
[5]; first compound 0.253 µM
  relative viability: 0.354
[5]; first compound 0.8 µM
  relative viability: 0.435
[5]; first compound 2.53 µM
  relative viability: 0.288
[5]; first compound 8 µM
  relative viability: 0.3
[6]; first compound 0.253 µM
  relative viability: 0.701
[6]; first compound 0.8 µM
  relative viability: 0.624
[6]; first compound 8 µM
  relative viability: 0.749
[7]; first compound 0.08 µM
  relative viability: 0.563
[7]; first compound 0.253 µM
  relative viability: 0.636
[7]; first compound 0.8 µM
  relative viability: 0.604
[7]; first compound 2.53 µM
  relative viability: 0.589
[7]; first compound 8 µM
  relative viability: 0.603
[8]; first compound 0.08 µM
  relative viability: 1.07
[8]; first compound 0.253 µM
  relative viability: 1.07
[8]; first compound 0.8 µM
  relative viability: 0.838
[8]; first compound 2.53 µM
  relative viability: 0.792
[8]; first compound 8 µM
  relative viability: 0.833
[9]; first compound 0.08 µM
  relative viability: 0.754
[9]; first compound 0.253 µM
  relative viability: 1.11
[9]; first compound 0.8 µM
  relative viability: 0.865
[9]; first compound 2.53 µM
  relative viability: 0.838
[9]; first compound 8 µM
  relative viability: 0.924

## CCN(CC)CCCCNc1ncc2cc(-c3cc(OC)cc(OC)c3)c(NC(=O)NC(C)(C)C)nc2n1 + CC(=O)c1c(C)c2cnc(Nc3ccc(N4CCNCC4)cn3)nc2n(C2CCCC2)c1=O [Palbociclib] (partner 0.5 µM)
[2]; first compound 0.03162 µM
  relative viability: 0.968
[2]; first compound 0.1 µM
  relative viability: 0.724
[2]; first compound 0.3162 µM
  relative viability: 0.832
[2]; first compound 1 µM
  relative viability: 0.574
[3]; first compound 0.01 µM
  relative viability: 0.291
[3]; first compound 0.03162 µM
  relative viability: 0.343
[3]; first compound 0.1 µM
  relative viability: 0.341
[3]; first compound 0.3162 µM
  relative viability: 0.312
[3]; first compound 1 µM
  relative viability: 0.248
[4]; first compound 0.01 µM
  relative viability: 0.98
[4]; first compound 0.03162 µM
  relative viability: 0.915
[4]; first compound 0.1 µM
  relative viability: 1.08
[4]; first compound 0.3162 µM
  relative viability: 0.997
[4]; first compound 1 µM
  relative viability: 0.823
[5]; first compound 0.01 µM
  relative viability: 0.319
[5]; first compound 0.03162 µM
  relative viability: 0.331
[5]; first compound 0.1 µM
  relative viability: 0.326
[5]; first compound 0.3162 µM
  relative viability: 0.303
[5]; first compound 1 µM
  relative viability: 0.285
[6]; first compound 0.01 µM
  relative viability: 0.288
[6]; first compound 0.03162 µM
  relative viability: 0.292
[6]; first compound 0.1 µM
  relative viability: 0.237
[6]; first compound 0.3162 µM
  relative viability: 0.274
[6]; first compound 1 µM
  relative viability: 0.238
[7]; first compound 0.01 µM
  relative viability: 0.539
[7]; first compound 0.03162 µM
  relative viability: 0.511
[7]; first compound 0.1 µM
  relative viability: 0.547
[7]; first compound 0.3162 µM
  relative viability: 0.541
[7]; first compound 1 µM
  relative viability: 0.47
[8]; first compound 0.01 µM
  relative viability: 0.394
[8]; first compound 0.03162 µM
  relative viability: 0.345
[8]; first compound 0.1 µM
  relative viability: 0.32
[8]; first compound 0.3162 µM
  relative viability: 0.268
[8]; first compound 1 µM
  relative viability: 0.297
[9]; first compound 0.01 µM
  relative viability: 0.377
[9]; first compound 0.03162 µM
  relative viability: 0.407
[9]; first compound 0.1 µM
  relative viability: 0.519
[9]; first compound 0.3162 µM
  relative viability: 0.398
[9]; first compound 1 µM
  relative viability: 0.331

## CCN(CC)CCCCNc1ncc2cc(-c3cc(OC)cc(OC)c3)c(NC(=O)NC(C)(C)C)nc2n1 + CC(=O)Nc1cccc(-n2c(=O)n(C3CC3)c(=O)c3c(Nc4ccc(I)cc4F)n(C)c(=O)c(C)c32)c1 [Trametinib] (partner 0.02 µM)
[3]; first compound 0.01 µM
  relative viability: 0.579
[3]; first compound 0.03162 µM
  relative viability: 0.593
[3]; first compound 0.1 µM
  relative viability: 0.667
[3]; first compound 0.3162 µM
  relative viability: 0.692
[3]; first compound 1 µM
  relative viability: 0.61
[4]; first compound 0.01 µM
  relative viability: 0.906
[4]; first compound 0.03162 µM
  relative viability: 0.902
[4]; first compound 0.1 µM
  relative viability: 0.951
[4]; first compound 0.3162 µM
  relative viability: 0.962
[4]; first compound 1 µM
  relative viability: 0.885
[5]; first compound 0.01 µM
  relative viability: 0.564
[5]; first compound 0.03162 µM
  relative viability: 0.529
[5]; first compound 0.1 µM
  relative viability: 0.622
[5]; first compound 0.3162 µM
  relative viability: 0.521
[5]; first compound 1 µM
  relative viability: 0.495
[6]; first compound 0.01 µM
  relative viability: 0.368
[6]; first compound 0.03162 µM
  relative viability: 0.49
[6]; first compound 0.1 µM
  relative viability: 0.396
[6]; first compound 0.3162 µM
  relative viability: 0.46
[6]; first compound 1 µM
  relative viability: 0.367
[7]; first compound 0.01 µM
  relative viability: 0.863
[7]; first compound 0.03162 µM
  relative viability: 0.802
[7]; first compound 0.1 µM
  relative viability: 0.842
[7]; first compound 0.3162 µM
  relative viability: 0.836
[7]; first compound 1 µM
  relative viability: 0.806
[8]; first compound 0.01 µM
  relative viability: 0.601
[8]; first compound 0.03162 µM
  relative viability: 0.562
[8]; first compound 0.1 µM
  relative viability: 0.525
[8]; first compound 0.3162 µM
  relative viability: 0.584
[8]; first compound 1 µM
  relative viability: 0.512
[9]; first compound 0.01 µM
  relative viability: 0.455
[9]; first compound 0.03162 µM
  relative viability: 0.539
[9]; first compound 0.1 µM
  relative viability: 0.605
[9]; first compound 0.3162 µM
  relative viability: 0.516
[9]; first compound 1 µM
  relative viability: 0.433
